Measurements from patent publication US7192931B2, “Treatment of demyelinating diseases” (Neuren Pharmaceuticals Ltd., priority 2000, dated 2007).

Columns and labels:
[1] = system: C57Bl/6 mice with MOG35-55 peptide-induced EAE; experiment: Expanded disability status scale for EAE treated mice; format: in vivo, mouse; conditions: for Maximal disability score: Alertness / Maximal disability score: Bladder function / Maximal disability score: Eye movements / Maximal disability score: Motor (grip)* / Maximal disability score: Other signs (shine hairs and loose skin) / Maximal disability score: Sensory* Light touch / Maximal disability score: Sensory* Pain / Maximal disability score: Spontaneous mobility / Maximal disability score: Tone* / Maximal disability score: Tremor / Maximal disability score: Vision (including pupillary reflex) / Total expanded disability scale: mean values
Experimental: (§1) C57Bl/6 mice (8–10 week old) were injected subcutaneously in one flank with 300 μg of MOG35-55 peptide ([…]: SEQ ID NO:1) synthesized by Mimotapes Pty Ltd, Clayton, Australia and emulsified in CFA containing 500 μg of Mycobacterium tuberculosis H37Ra (DIFCO Laboratories, Detrit, USA). They also received 500 ng of pertussis toxin (List Biological Laboratories, CA, USA) in 200 μl PBS intravenously via the tail vein, followed 48 hours later by a second dose. A second injection of MOG peptide was given in the absence of pertussis toxin one week later in the opposite flank, as described previously (Kanwar et al., 2000b).
(§2) Two treatment protocols were employed, involving the treatment of early disease, versus advanced disease. For early disease, reagents were administered at day 35 (following MOG injection). Antibody was administered thrice on alternate days, whereas neuroprotectors were given daily for 6 days, where 50% of reagent was given ip and 50% iv. In the treatment of advanced disease, therapy as above was initiated at day 60, with either three or eight anti-MAdCAM-1 mAb injections, and neuroprotectors given daily for either 7 or 18 days.
The mice were monitored daily and scored according to the following scale: 0, no clinical signs of EAE; 1, limp tail; 2, partial hind limb paralysis; 3, complete hind limb paralysis; 4, complete hind limb and partial fore limb paralysis; 5, paralysis extending to diaphragm; 6, hind and fore limb paralysis; 7, death due to EAE. Paralysis extending to the diaphragm was denoted as difficulty in remaining upright. […] The daily mean clinical score for each group is the mean disease score of at least five mice. The body weight of animals was measured regularly throughout the experiments. The expanded disability status scale for EAE treated mice was scored using an earlier published scoring system (Villoslada et al. 2000).

[2] = system: C57Bl/6 mice with MOG35-55 peptide-induced EAE; experiment: Neuropathology scoring of spinal cord sections (pathology status scale); format: in vivo, mouse; conditions: for Pathology status scale: Oligodendrocytes** / Pathology status scale: Remyelination**: reverse scores; for Pathology status scale: Axonal damage / Pathology status scale: Demyelination / Pathology status scale: Inflammation: scored 0 to 5
Experimental: as §1, §2
Mice were perfused through the left cardiac ventricle with ice-cold PBS or glutaraldehyde, and the CNS including brain and spinal cord were prepared for frozen or epoxy sections, respectively. Thin slices were taken at all levels of the CNS including spinal cord (cervical, midthoracic, T11, T12/13, upper lumbar, L6, L7 and sacral) and sacral roots. One-μm thick epoxy sections taken from different levels of the spinal cord were stained with toluidine blue, and examined by light microscopy by an investigator blinded to the sample identity. Multiple sections from the spinal cord were scored from 0 to 5 for inflammation, demyelination, remyelination, and axonal necrosis or damage, using a previously published scoring system (Moore et al., 2000).

## Gly-Pro-Glu [GPE]
[1]; at day 70 as printed, 35 for rat IgG treated control mice
  total scores (disability scale): 10
[1]; day 55 after immunization
  Maximal disability score: Alertness: 2
  Maximal disability score: Bladder function: 0
  Maximal disability score: Eye movements: 1
  Maximal disability score: Motor (grip)*: 12
  Maximal disability score: Other signs (shine hairs and loose skin): 3
  Maximal disability score: Sensory* Light touch: 8
  Maximal disability score: Sensory* Pain: 8
  Maximal disability score: Spontaneous mobility: 3
  Maximal disability score: Tone*: 12
  Maximal disability score: Tremor: 2
  Maximal disability score: Vision (including pupillary reflex): 1
  Total expanded disability scale: 52
[1]; day 60 after immunization
  Maximal disability score: Alertness: 2
  Maximal disability score: Bladder function: 1
  Maximal disability score: Eye movements: 1
  Maximal disability score: Motor (grip)*: 12
  Maximal disability score: Other signs (shine hairs and loose skin): 2
  Maximal disability score: Sensory* Light touch: 8
  Maximal disability score: Sensory* Pain: 8
  Maximal disability score: Spontaneous mobility: 3
  Maximal disability score: Tone*: 12
  Maximal disability score: Tremor: 2
  Maximal disability score: Vision (including pupillary reflex): 1
  Total expanded disability scale: 52
[1]; day 65 after immunization
  Maximal disability score: Alertness: 1
  Maximal disability score: Bladder function: 0
  Maximal disability score: Eye movements: 0
  Maximal disability score: Motor (grip)*: 4
  Maximal disability score: Other signs (shine hairs and loose skin): 0
  Maximal disability score: Sensory* Light touch: 0
  Maximal disability score: Sensory* Pain: 0
  Maximal disability score: Spontaneous mobility: 2
  Maximal disability score: Tone*: 8
  Maximal disability score: Tremor: 0
  Maximal disability score: Vision (including pupillary reflex): 0
  Total expanded disability scale: 15
[1]; day 70 after immunization
  Maximal disability score: Alertness: 1
  Maximal disability score: Bladder function: 0
  Maximal disability score: Eye movements: 1
  Maximal disability score: Motor (grip)*: 4
  Maximal disability score: Other signs (shine hairs and loose skin): 0
  Maximal disability score: Sensory* Light touch: 0
  Maximal disability score: Sensory* Pain: 0
  Maximal disability score: Spontaneous mobility: 3
  Maximal disability score: Tone*: 4
  Maximal disability score: Tremor: 0
  Maximal disability score: Vision (including pupillary reflex): 0
  Total expanded disability scale: 13
[1]; day 75 after immunization
  Maximal disability score: Alertness: 1
  Maximal disability score: Bladder function: 1
  Maximal disability score: Eye movements: 0
  Maximal disability score: Motor (grip)*: 0
  Maximal disability score: Other signs (shine hairs and loose skin): 0
  Maximal disability score: Sensory* Light touch: 0
  Maximal disability score: Sensory* Pain: 0
  Maximal disability score: Spontaneous mobility: 3
  Maximal disability score: Tone*: 4
  Maximal disability score: Tremor: 0
  Maximal disability score: Vision (including pupillary reflex): 1
  Total expanded disability scale: 10
[1]; day 119 after immunization
  Maximal disability score: Alertness: 1
  Maximal disability score: Bladder function: 0
  Maximal disability score: Eye movements: 1
  Maximal disability score: Motor (grip)*: 0
  Maximal disability score: Other signs (shine hairs and loose skin): 0
  Maximal disability score: Sensory* Light touch: 4
  Maximal disability score: Sensory* Pain: 4
  Maximal disability score: Spontaneous mobility: 2
  Maximal disability score: Tone*: 4
  Maximal disability score: Tremor: 1
  Maximal disability score: Vision (including pupillary reflex): 0
  Total expanded disability scale: 17
[2]; day 45
  Pathology status scale: Apoptosis: 3
  Pathology status scale: Oligodendrocytes**: 3
  Pathology status scale: Remyelination**: 2
  Pathology status scale: Axonal damage: 3
  Pathology status scale: Demyelination: 3
  Pathology status scale: Inflammation: 2
[2]; day 60
  Pathology status scale: Apoptosis: 3
  Pathology status scale: Oligodendrocytes**: 3
  Pathology status scale: Remyelination**: 3
  Pathology status scale: Axonal damage: 3
  Pathology status scale: Demyelination: 3
  Pathology status scale: Inflammation: 3
[2]; day 65
  Pathology status scale: Apoptosis: 2
  Pathology status scale: Oligodendrocytes**: 2
  Pathology status scale: Remyelination**: 2
  Pathology status scale: Axonal damage: 2
  Pathology status scale: Demyelination: 2
  Pathology status scale: Inflammation: 2
[2]; day 70
  Pathology status scale: Apoptosis: 3
  Pathology status scale: Oligodendrocytes**: 2
  Pathology status scale: Remyelination**: 2
  Pathology status scale: Axonal damage: 3
  Pathology status scale: Demyelination: 3
  Pathology status scale: Inflammation: 2
[2]; day 119
  Pathology status scale: Apoptosis: 2
  Pathology status scale: Oligodendrocytes**: 2
  Pathology status scale: Remyelination**: 1
  Pathology status scale: Axonal damage: 2
  Pathology status scale: Demyelination: 2
  Pathology status scale: Inflammation: 1
[2]; sum over the six pathology parameters after treatment
  Total scores After treatment (pathology status scale): 55
[2]; text statement of Table 2 totals
  cumulative scores for inflammation, demyelination, remyelination, apoptosis, oligodendrocyte loss, and axonal damage following treatment: 55
